The values below come from patent US11253527B2, “Method and composition for inhibiting virus infection” (priority 2019, dated 2022).

The test relates to HSV-1 virions. The test is described as follows: Direct effect on infectivity of purified HSV-1 virions, plaque assay. The conditions noted are these: purified virions incubated directly with drug 1 hour at 37° C., dose-dependent. Format: cell-based, Herpes simplex virus type 1. The method, then:
Purified HSV-1 was incubated directly with media containing various concentrations of each Antrodia camphorata extracts for 1 hour at 37° C. The viral titers were then examined in oral epithelial cells (OC3) using the plaque assay. The results shown are the mean±SEM from at least three independent experiments. Statistical differences are shown by different lowercase letters (analysis of variance, Tukey, α=0.05).
The oral epithelial cell line (OC3) was used to determine the possible effects of Antrodia camphorata extracts on oral epithelial cells during HSV-1 infection. Cell monolayers were treated as illustrated in FIG. 4 (please also see details in the Materials and Methods section). Three experimental conditions, including no-treatment, pre-treatment and post-treatment were performed. Whether these Antrodia camphorata extracts have effects before or after viral infection were examined. The effects of Antrodia camphorata extracts on viral propagation (viral yields) in infected oral epithelial cells were examined. At 19-20 h post infection, viral yields in the supernatants were determined using the plaque assay. Viability of treated cells was also determined using the MTT assay for the mitochondrial dehydrogenase activity. Moreover, purified HSV-1 virions were directly treated with Antrodia camphorata extracts to examine whether Antrodia camphorata extracts exert anti-HSV-1 activity directly on virus particles before viral entry.
Oral epithelial cells (OC3 cells) were infected with HSV-1 at multiplicity of infection (MOI) of 5 or mock infected for 1 h at 37° C. for viral entry to occur. Unbound viruses were removed. Infected cells were then overlaid with appropriate media and incubated at 37° C. The Antrodia camphorata fruit body extracts used were A2 (Antrodia camphorata extracts), A3 (dehydrosulphurenic acid), A4 (antcin K), A5 (versisponic acid), and A6 (dehydroeburicoic acid). […]
Viral titers in the supernatants after infection were determined using the plaque assay. […] Plaques were observed and counted under an inverted microscope. […]

The structures appear in SMILES notation.

As to `C=C(CC[C@@H](C)[C@H]1CC[C@H]2C3=C(C(=O)C[C@]12C)[C@@]1(C)CCC(O)[C@](C)(O)C1CC3O)C(C)C(=O)O` (stereo partly shown) [A4, antcin K], the “viral infectivity of treated HSV-1 virions” value is on record as “statistically significantly inhibited”.
